One test deals with HCV replicon. Description: Replicon based assay of HCV replication inhibition (NPT ELISA). To be noted: Hepatitis C virus, Huh-7, 72 h, Table I; Huh-7 HCV replicon-containing cells, three days; read-out: Activity. The class given is cell-based, Hepatitis C virus. The method, boiled down: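 Huh-7 cells carrying a bicistronic HCV replicon (neo, EMCV-IRES-driven NS3–NS5B) treated overnight after seeding with usually 6 concentrations, 10 to 0.03 micromolar, for three days at 37° C without G418. Replication read as NPT level by captured ELISA; matched-DMSO wells and interferon alpha as controls.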
In general terms: Replicon systems follow genome replication, usually without infectious particles.
On to `CCOC(=O)c1cc(-c2csc(Nc3cccc(Oc4ccccc4)c3)n2)on1` [compound 190, ethyl S-(2-(3-phenoxyphenylamino)thiazol-4-yl)isoxazole-3-carboxylate], for which the EC50 was above 10000 nM.
The same measure, in the same setting: for `CCCCCOc1ccc(Nc2nc(-c3cccc(F)c3)cs2)cc1C(F)(F)F` [compound 198, N-(3-(trifluoromethyl)-4-(pentyloxy)phenyl)-4-(3-fluorophenyl)thiazol-2-amine] the value was below 1000 nM; for `N#Cc1ccc(Nc2nc(-c3ccc(F)cc3F)cs2)cc1` [compound 53, 4-(4-(2,4-difluorophenyl)thiazol-2-ylamino)benzonitrile], above 10000 nM.
Take `FC(F)(F)c1cc(Nc2nc(-c3ccc(Cl)c(Cl)c3)cs2)ccc1Cl` [compound 60, N-(4-chloro-3-(trifluoromethyl)phenyl)-4-(3,4-dichlorophenyl)thiazol-2-amine]: the EC50 was below 1000 nM.
Regarding `CCCCCOc1ccc(Nc2nc(-c3ccc(F)cc3F)cs2)cn1` [compound 65, N-(4-(2,4-difluorophenyl)thiazol-2-yl)-6-(pentyloxy)pyridin-3-amine], the EC50 is above 10000 nM.
Take `CCCCCOc1ccc(Nc2nc(-c3ccc(Cl)cc3)cs2)cc1` [compound 26, 4-(4-chlorophenyl)-N-(4-(pentyloxy)phenyl)thiazol-2-amine]: the EC50 is below 1000 nM.
On the same count and under the same terms, for `Clc1ccc(-c2csc(Nc3ccc(Cc4ccccc4)cc3)n2)cc1Cl` [compound 40, N-(4-benzylphenyl)-4-(3,4-dichlorophenyl)thiazol-2-amine] the value was above 10000 nM; for `Fc1ccc(-c2csc(Nc3cccc(Cc4ccccc4)c3)n2)cc1` [compound 35, N-(3-benzylphenyl)-4-(4-fluorophenyl)thiazol-2-amine], above 10000 nM.
Still for that read-out and setting: for `CCCCCOc1ccc(Nc2nc(C(=O)Nc3ccc(C#N)cc3)cs2)cc1C(F)(F)F` [compound 15, 2-(3-(trifluoromethyl)-4-(pentyloxy)phenylamino)-N-(4-cyanophenyl)thiazole-4-carboxamide] the value was above 10000 nM; for `Clc1ccc(-c2csc(Nc3cccc(Cc4ccccc4)c3)n2)cc1` [compound 38, N-(3-benzylphenyl)-4-(4-chlorophenyl)thiazol-2-amine], below 1000 nM; for `CCCCCOc1ccc(Nc2nc(-c3ccc(C(=O)N4CCNC(=O)C4)nc3)cs2)cc1C(F)(F)F` [compound 222], below 1000 nM.
Same read-out and setting: for `CCCCCOc1ccc(Nc2nc(C(=O)Nc3ccc(OC)cc3)cs2)cc1C(F)(F)F` [compound 16, 2-(3-(trifluoromethyl)-4-(pentyloxy)phenylamino)-N-(4-methoxyphenyl)thiazole-4-carboxamide] the value was above 10000 nM.
In the case of `CCCCCOc1ccc(Nc2nc(-c3cc(-c4ccc(Cl)c(Cl)c4)no3)cs2)cc1C(F)(F)F` [compound 201, 4-(3-(3,4-dichlorophenyl)isoxazol-5-yl)-N-(3-(trifluoromethyl)-4-(pentyloxy)phenyl)thiazol-2-amine], the EC50 is above 10000 nM.
The same measure, in the same setting: for `CCCCCc1ccc(Nc2nc(-c3ccc(F)cc3)cs2)cc1` [compound 19, 4-(4-fluorophenyl)-N-(4-pentylphenyl)thiazol-2-amine] the value was below 1000 nM; for `CCCCCOc1ccc(Nc2nc(-c3ccc(F)cc3)cs2)cc1` [compound 21, 4-(4-fluorophenyl)-N-(4-(pentyloxy)phenyl)thiazol-2-amine], below 1000 nM.

Still in this test, the particulars now being: Hepatitis C virus, Huh-7, 72 h, Table III; Huh-7 HCV replicon-containing cells, three days; read-out: Activity.
With `CCCCCN(C)c1ccc(Nc2nc(-c3ccc(F)nc3)cs2)cc1C(F)(F)F` [compound 529, 2-(trifluoromethyl)-N4-(4-(6-fluoropyridin-3-yl)thiazol-2-yl)-N1-methyl-N1-pentylbenzene-1,4-diamine], the EC50 was below 1000 nM.
On to `FC(F)(F)c1cc(Nc2nc(-c3cccnc3)cs2)ccc1OCCCc1ccccc1` [compound 682, N-(4-(3-phenylpropoxy)-3-(trifluoromethyl)phenyl)-4-(pyridin-3-yl)thiazol-2-amine], for which the EC50 is below 1000 nM.
Same read-out and setting: for `CCCCCCCCOc1ccc(Nc2nc(-c3ccc4ncccc4n3)cs2)cc1C(F)(F)F` [compound 701, 4-(6-deuterated-1,5-naphthyndin-2-yl)-N-(4-(octyloxy)-3-(trifluoromethyl)phenyl)thiazol-2-amine] the value was below 1000 nM; for `CCCCCCCCOc1ccc(Nc2nc(-c3cccc(C(F)(F)F)c3)cs2)cc1C(F)(F)F` [compound 715, N-(3-(trifluoromethyl)-4-(octyloxy)phenyl)-4-(3-(tnfluoromethyl)phenyl)thiazol-2-amine], below 1000 nM; for `CCCCCCCCOc1ccc(Nc2nc(-c3ccc(-c4csnn4)cc3)cs2)cc1C(F)(F)F` [compound 668, 4-(4-(1,2,3-thiadiazol-4-yl)phenyl)-N-(3-(trifluoromethyl)-4-(octyloxy)phenyl)thiazol-2-amine], below 1000 nM.
On the same count and under the same terms, for `CCCCCCCCOc1ccc(Nc2nc(-c3cnc(NC(C)=O)c(C)c3)cs2)cc1` [compound 688, N-(5-(2-(4-(octyloxy)phenylamino)thiazol-4-yl)-3-methylpyridin-2-yl)acetamide] the value was 1000 to 10000 nM; for `CCCCCOc1ccc(Nc2nc(/C=C/c3ccc(OC)cc3)cs2)cc1C(F)(F)F` [compound 600, 4-(4-methoxystyryl)-N-(3-(trifluoromethyl)-4-(pentyloxy)phenyl)thiazol-2-amine], below 1000 nM; for `N#Cc1ccc(-c2csc(Nc3ccc(OCCCC4CCCC4)c(C(F)(F)F)c3)n2)cn1` [compound 614], below 1000 nM.
For the compound `CCCCCCCCOc1ccc(Nc2nc(-c3cccc(S(N)(=O)=O)c3)cs2)cc1C(F)(F)F` [compound 711], the EC50 was below 1000 nM.
`CCCCCCCCN(C)c1ccc(Nc2nc(Cc3ccc(Cl)cc3)cs2)cc1` [compound 638, N^1-(4-(4-chlorobenzyl)thiazol-2-yl)-N^4-methyl-N^4-octylbenzene-1,4-diamine]: the EC50 was in the range of 1000 to 10000 nM.
In the case of `CCCCCCCCN(C)c1ccc(Nc2nc(-c3ccc4[nH]c(=O)oc4c3)cs2)cc1C(F)(F)F` [compound 573, 6-(2-(4-(N-methyl-N-octylamino)-3-(tnfluoromethyl)phenylamino)azol-4-yl)benzo[d]oxazol-2(3H)-one], the EC50 was below 1000 nM.
As for `CCCCCCC(C)Oc1ccc(Nc2nc(-c3ccc(N)nc3)cs2)cc1C(F)(F)F` (stereo not shown) [compound 677, 5-(2-(3-(trifluoromethyl)-4-(octan-2-yloxy)phenylamino)thiazol-4-yl)pyridin-2-amine], the EC50 is below 1000 nM.

The test is the same for the next values; noted with them: Hepatitis C virus, replicon based assay of HCV replication inhibition; Table II; read-out: Activity.
In the case of `Fc1ccc(-c2csc(Nc3ccc(OCC4CC4)c(C(F)(F)F)c3)n2)cc1` [compound 243, N-(4-(cyclopropylmethoxy)-3-(trifluoromethyl)phenyl)-4-(4-fluorophenyl)thiazol-2-amine], the EC50 is below 1000 nM.
For `CCCCCOc1ccc(Nc2nc(CN3CCCC(C)C3)cs2)cc1F` (stereo not shown) [compound 296, N-(3-fluoro-4-(pentyloxy)phenyl)-4-((3-methylpiperidin-1-yl)methyl)thiazol-2-amine], the EC50 was in the range of 1000 to 10000 nM.
For `CCCCCOc1ccc(Nc2nc(CN3CCCC(C(=O)N(CC)CC)C3)cs2)cc1F` (stereo not shown) [compound 284, N,N-diethyl-1-((2-(3-fluoro-4-(pentyloxy)phenylamino)thia-zol-4-yl)methyl)piperidine-3-carboxamide], the EC50 is 1000 to 10000 nM.
With `CCCCCCCCOc1ccc(Nc2nc(CN3CCC(O)CC3)cs2)cc1` [compound 321, 1-((2-(4-(octyloxy)phenylamino)thia-zol-4-yl)methyl)piperidin-4-ol], the EC50 fell in the range of 1000 to 10000 nM.
Still for that read-out and setting: for `Fc1ccc(-c2csc(Nc3ccc(OCC4CCCCC4)c(F)c3)n2)cc1` [compound 509, N-(4-(cyclohexylmethoxy)-3-fluorophenyl)-4-(4-fluorophenyl)thiazol-2-amine] the value was below 1000 nM; for `CCCCCCCCOc1ccc(Nc2nc(-c3ccc(OCC(=O)O)cc3)c(C)s2)cc1` [compound 311], below 1000 nM; for `CCCCCOc1ccc(Nc2nc(C(=O)Nc3ccncc3)cs2)cc1C(F)(F)F` [compound 232, 2-(4-(pentyloxy)-3-(trifluoromethyl)phenyl-amino)-N-(pyridin-4-yl)thiazole-4-carboxamide], 1000 to 10000 nM.
The same measure, in the same setting: for `CCCCCCCOc1ccc(Nc2nc(CC)cs2)cc1` [compound 403, 4-ethyl-N-(4-(heptyloxy)phenyl)thiazol-2-amine] the value was below 1000 nM.

Staying with this test, now noted: Hepatitis C virus, replicon based assay of HCV replication inhibition; Table IV; read-out: Activity.
Regarding `Cc1sc(Nc2ccc(OCCCc3ccccc3)c(F)c2)nc1-c1cccnc1` [compound 855, N-(4-(3-phenylpropoxy)-3-fluorophenyl)-5-methyl-4-(pyridin-3-yl)thiazol-2-amine], the EC50 was above 10000 nM.
On the same count and under the same terms, for `COc1ncc(-c2csc(Nc3ccc(OC/C=C(\C)CCC=C(C)C)c(C(F)(F)F)c3)n2)cn1` [compound 775, N-(4-((E)-3,7-dimethylocta-2,6-dienyloxy)-3-(trifluoromethyl)phenyl)-4-(2-methoxypyrimidin-5-yl)thiazol-2-amine] the value was below 1000 nM.
`CCOC(=O)Cc1ccc(-c2csc(Nc3ccc(OCCSc4ccccc4)c(C(F)(F)F)c3)n2)s1` [compound 934, ethyl 2-(5-(2-(4-(2-(phenylthio)ethoxy)-3-(trifluoromethyl)phenylamino)thiazol-4-yl)thiophen-2-yl)acetate]: the EC50 is 1000 to 10000 nM.
The same measure, in the same setting: for `Cc1c(C)c(C)c(C(=O)CCc2cccc(Nc3nc(-c4cccnc4)cs3)c2)c(C)c1C` [compound 898, 3-(3-(4-(pyridin-3-yl)thiazol-2-ylamino)phenyl)-1-(2,3,4,5,6-pentamethylphenyl)propan-1-one] the value was below 1000 nM.
Still for that read-out and setting: for `Fc1ccc(C(F)(F)F)cc1Nc1nc(-c2cccnc2)cs1` [compound 888, N-(2-fluoro-5-(trifluoromethyl)phenyl)-4-(pyridin-3-yl)thiazol-2-amine] the value was 1000 to 10000 nM.

The values above are taken from patent US8088806B2 (Achillion Pharmaceuticals, Inc., priority 2005, dated 2012).
